{
  "source": "patent US8617563B2",
  "about": "“Antichlamydial agents” (Duke University, priority 2011, dated 2013)",
  "key": {"[1]": {"system": "epithelial cells infected with C. trachomatis", "experiment": "Host cell death (condensed nuclei) in C. trachomatis infected cells", "type": "cell-based", "conditions": "caspase inhibitor added before the CPAF inhibitor peptide", "method": "FIG. 11 depicts (A) that inhibiting CPAF activity induces host cell death. The indicated peptides (anti-CPAF peptide refers to SEQ ID NO:7) were added to infected cells 12 hpi and the percentage of infected cells with condensed nuclei was quantified at the indicated times. (B-C) Inhibition of CPAF activity induces apoptosis. Infected cells were treated with peptides and the percentage of AnnexinV-FITC positive (propidium iodide (PI) negative) was determined by flow cytometry (B). In parallel samples, cleavage of Caspase-3, a hallmark of apoptosome activation, was monitored by immunoblot analysis. Actin and MOMP are host and bacterial loading controls respectively. Staurosporine (2 μM)-treatment was used as a positive control and the pan-caspase inhibitor ZVAD-FMK were used as controls. (D) Cell death is blocked by a pan-Caspase inhibitor. Infected cells were treated as in (A) in the presence or absence of ZVAD-FMK, labeled with PI and analyzed by flow cytometry. Cells pre-treated with ZVAD-FMK and the control peptide lacked PI staining.\nFIG. 12 depicts (A) low-magnification view of C. trachomatis LGV-L2 infected HeLa monolayers (30 h) treated with SEQ ID NO:7 or SEQ ID NO:11 peptides. […] HeLa cells infected with C. muridarum were treated with Ac-YVAD-CMK at 2 hpi, SEQ ID NO:7 peptide or SEQ ID NO:11 control peptide at 12 hpi and the percentage of infected cells with condensed nuclei was assessed at 48 hpi (F). […] The percentage of infected cells with condensed nuclei was assessed at 48 hpi (G). […] Cell death in infected and uninfected cells treated with CPAF inhibitory peptides or control peptides was determined by counting the number of condensed nuclei of ˜1000 cells.\nFIG. 13 depicts (A) that Caspase-1 inhibitors block Chlamydia-mediated cell death. […] Cells were fixed and the percentage of cells with condensed nuclei determined at 24 hpi. […] Infected cells were labeled with a cell-permeable fluorescent substrate of Caspase-1 and treated with inhibitory peptides, and Caspase-1 activity was monitored by flow cytometry. […]"}, "[2]": {"system": "C. muridarum", "experiment": "C. muridarum growth in HeLa cells (recovered IFUs)", "type": "cell-based", "conditions": "caspase-1 inhibitor at 2 hpi", "method": "Cells were infected with an MOI of 1 and treated with CPAF inhibitor (SEQ ID NO:7) or control (SEQ ID NO:11) peptides at 12 hpi, fixed at 24 hpi and analyzed by IF with anti-L2 polyclonal antisera. Inclusion size was determined by measuring the inclusion diameter in μm by confocal microscopy of 50 infected cells. The number of cells with fragmented inclusions was determined by counting the number of infected cells out of 50 with more than one inclusion. (C) Sequence alignment and % sequence identify of full length CPAF and predicted inhibitory peptide sequence between C. trachomatis serovar LGV-L2, Chlamydia muridarum, and Chlamydophila caviae was determined using Geneious software (available at the Geneious website). […] GPIC or C. muridarum infected whole cell protein lysate was preincubated with SEQ ID NO:7 peptide or SEQ ID NO:11 control peptide, mixed with GST-IncC at 37° C., resolved by SDS-PAGE and stained with Coomassie blue. […] Inhibition of C. muridarum (E) and C. ceviae (F) growth was determined by counting the number of recovered IFUs. […] Inclusions were detected by IF with anti-LGV-L2 (A, B, E) antisera or anti-chlamydial LPS (F) monoclonal antibodies, and host nuclei sere detected by staining."}, "[3]": {"molecular_target": "T1, CPAF (Chlamydia trachomatis serovar D, UniProt O84866)", "experiment": "HPLC-based CPAF enzyme kinetics with model substrate", "type": "biochemical, C. trachomatis", "parameters": "6xHis; made in house; host or cells: E. coli BL21 (DE3), plasmid pET30b-CPAF", "conditions": "CPAF 62.5 nM, substrate 0-6 mM, 25° C.", "method": "Proteolytic enzyme kinetics of CPAF were measured using an HPLC-based assay that quantifies the cleavage of an Abz-tagged model CPAF substrate derived from human vimentin:\nStandard assays were performed in a total volume of 100 μL containing Assay Buffer (150 mM NaCl, 50 mM Tris pH 7.5), CPAF (62.5 nM), and varying concentrations (0-6 mM) of CPAF substrate (SEQ ID NO:9). Reactions were initiated by the addition of enzyme and incubated at 25° C. for 90 seconds. Incubation was followed by removal of 80 μL aliquots and quenched by the addition of 40 μL 1.2 M HCl. […] Abz-containing peptides were detected by fluorescence emission at 420 nm, and the composition and identity of each product were confirmed by mass spectrometry by LCMS. […] The percentage of substrate converted to product was calculated from the HPLC data by integrating the area under the peaks in the chromatograms using PeakFit v4.11 (available from Systat Software), followed by analysis in Grafit 6.0 (available from Erithacus Software) using the following equation: […]"}, "[4]": {"molecular_target": "T1, CPAF", "type": "biochemical, C. trachomatis", "parameters": "6xHis; made in house; host or cells: E. coli (pET30b)", "conditions": "GST-chlamydial substrates in presence of peptides", "method": "FIG. 4 depicts (A) Recombinant Chlamydia ORFs were tested for sensitivity to host and bacterial derived proteases. […] Purified his-tagged CPAF was incubated with GST-tagged chlamydial substrates at 37° C. for 20 min with increasing amounts of lactacystin. Cleavage products were run on an SDS PAGE gel and visualized with Coomassie blue staining. (C) Schematic summary of CPAF targets. […] Membranes from Chlamydia-infected HeLa cells were harvested and purified at 0, 24, 36 and 48 hours post-infection, and the abundance of the chlamydial proteins Ct005, IncC and IncD were monitored with specific antibodies. Na/K ATPase and IncG served as host and bacterial-loading controls, respectively.\nCytosols from Chlamydia-infected HeLa cells (40 hrs) or recombinant his-tagged CPAF were pre-treated with rabbit polyclonal anti-CPAF or anti-IncA antisera, and incubated with GST-tagged Chlamydia proteins for 20 min at 37° C. […] Three example proteins shown include a type-III secretion (T3S) core component (CdsQ) a T3S chaperone (Mcsc) and a T3S needle component (Ct584). Processing of recombinant proteins in A-B were monitored by immunoblot analysis with specific antibodies. (C) Protease inhibitor profile of recombinant CPAF. Example shown for the chlamydial substrate GST-IncC. Degradation products were visualized by SDS-PAGE followed by staining with Coomassie blue. […]\nUninfected and HeLa cells pre-infected with L2 for 30 hrs were treated with inhibitory peptides and infected with EBs for 10 min Tarp translocation was indirectly visualized with an anti-phosphotyrosine antibody (A) and quantified by counting 50 separate cells (B). The stability of newly translocated Tarp was assessed by infecting cells as in (A) but with S^35-labeled EBs, followed by sequential immunoprecipitation of Tarp and MOMP and Phosphoimager analysis of precipitated material (C (I-IV)). […] IC50 values were determined by assessing CPAF cleavage of an Abz-tagged CPAF substrate (SEQ ID NO:9) by HPLC. […] Extracellular bacteria were determined. […] The number of internalized EBs was quantified per cell (H). […]"}},
  "note": "Where a SMILES comes first, the peptide text is derived from it. [ ]: non-standard residue; d: D form. The star is where a group is joined. 2Abz = Nc1ccccc1C(=O)O; Cbz = O=C(OCc1ccccc1)*; CH2F = FC*",
  "data": [
    {"molecule": "COC(=O)C[C@H](NC(=O)[C@H](C)NC(=O)[C@@H](NC(=O)OCc1ccccc1)C(C)C)C(=O)CF", "note": "[ZVAD-FMK] (Cbz-Val-Ala-Asp(OMe)-CH2F)", "values": [
      {"measurement": "Block of death of Chlamydia-infected cells treated with SEQ ID NO:7", "setting": "[1]", "value": "efficiently blocked the death"}
    ]},
    {"molecule": "CC(=O)N[C@@H](Cc1ccc(O)cc1)C(=O)N[C@H](C(=O)N[C@@H](C)C(=O)N[C@@H](CC(=O)O)C(=O)CCl)C(C)C", "note": "[Ac-YVAD-CMK, reference compound]", "values": [
      {"measurement": "Rescue of C. muridarum growth defect in cells treated with SEQ ID NO:7", "setting": "[2]", "value": "does not rescue the growth defect"},
      {"measurement": "Block of death of Chlamydia-infected cells treated with SEQ ID NO:7", "setting": "[1]", "value": "efficiently blocked the death"}
    ]},
    {"molecule": "CC(C)C[C@H](NC(=O)[C@H](CCCNC(=N)N)NC(=O)[C@@H](NC(=O)c1ccccc1N)C(C)C)C(=O)N[C@@H](CCCNC(=N)N)C(=O)N[C@@H](CO)C(=O)N[C@@H](CO)C(=O)N[C@H](C(=O)N1CCC[C@H]1C(=O)NCC(=O)N[C@H](C(N)=O)C(C)C)C(C)C", "note": "[SEQ ID NO:9, Abz-V-R-L-R-S-S-V-P-G-V-NH2] (H-[2Abz]VRLRSSVPGV-NH2)", "values": [
      {"measurement": "kcat of CPAF proteolysis of model substrate", "setting": "[3]", "value": 13.2, "unit": "s⁻¹"},
      {"measurement": "Km", "setting": "[3]; read-out: KM of CPAF proteolysis of model substrate", "value": 880, "unit": "µM"}
    ]},
    {"molecule": "H-NFALSHFRLPLSTYKEMPYVSHWAGRRRRRRRRR-NH2 [SEQ ID NO:11, reference compound]", "values": [
      {"measurement": "Inhibition of degradation of CPAF substrates in vitro", "setting": "[4]", "value": "no CPAF inhibitory activity in vitro"}
    ]}
  ]
}
